This assay deals with Phospholipase D2 (Homo sapiens) + Phospholipase D2 (Homo sapiens) (UniProt O14939+O14939). In words: phospholipase D2 activity inhibition in cells – cell-based, HEK293 overexpressing PLD2, Lib32, assay 1B (AID 624009). The settings on record: HEK293 cells overexpressing PLD2, cellular PLD activity; active compounds read low; concentration not given here.

The source made the active and inactive calls. No rule for the calls is given here.

Sequence of Phospholipase D2 (Homo sapiens) + Phospholipase D2 (Homo sapiens) (O14939 whole entry, looked up): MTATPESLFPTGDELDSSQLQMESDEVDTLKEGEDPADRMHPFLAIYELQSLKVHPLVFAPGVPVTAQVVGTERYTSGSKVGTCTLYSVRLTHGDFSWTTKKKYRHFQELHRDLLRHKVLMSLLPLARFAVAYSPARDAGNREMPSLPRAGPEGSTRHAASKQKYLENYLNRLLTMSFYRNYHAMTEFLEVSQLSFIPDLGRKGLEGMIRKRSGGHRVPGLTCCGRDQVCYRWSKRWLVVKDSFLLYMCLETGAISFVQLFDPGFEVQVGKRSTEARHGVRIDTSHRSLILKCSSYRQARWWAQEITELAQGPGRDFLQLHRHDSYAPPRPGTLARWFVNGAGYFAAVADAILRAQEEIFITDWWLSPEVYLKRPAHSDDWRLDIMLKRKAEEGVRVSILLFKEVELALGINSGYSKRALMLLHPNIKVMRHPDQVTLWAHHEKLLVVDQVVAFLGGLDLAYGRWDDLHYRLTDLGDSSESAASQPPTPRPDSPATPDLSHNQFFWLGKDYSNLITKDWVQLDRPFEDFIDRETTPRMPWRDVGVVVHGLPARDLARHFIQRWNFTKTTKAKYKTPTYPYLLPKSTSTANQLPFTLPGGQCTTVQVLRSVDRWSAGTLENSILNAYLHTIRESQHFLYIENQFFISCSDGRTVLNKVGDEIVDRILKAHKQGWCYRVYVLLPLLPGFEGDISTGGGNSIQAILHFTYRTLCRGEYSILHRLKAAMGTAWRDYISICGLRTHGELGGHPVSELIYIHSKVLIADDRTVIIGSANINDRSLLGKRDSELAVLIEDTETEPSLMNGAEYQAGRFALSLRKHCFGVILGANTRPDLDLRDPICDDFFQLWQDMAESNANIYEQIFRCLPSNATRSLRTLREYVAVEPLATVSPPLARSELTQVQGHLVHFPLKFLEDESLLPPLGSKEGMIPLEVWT
Sequence of Phospholipase D2 (Homo sapiens) + Phospholipase D2 (Homo sapiens) (O14939 whole entry, looked up): as above

Turning to `O=C(NCCN1CCC2(CC1)C(=O)NCN2c1cccc(F)c1)c1ccc(Cl)cc1Cl`, the remaining activity is 116% (inactive).
Next, `C[C@@H](CN1CCC2(CC1)C(=O)NCN2c1cccc(F)c1)NC(=O)c1ccc(Cl)cc1Cl`: 81.5% (inactive); `C[C@@H](CN1CCC2(CC1)C(=O)NCN2c1cccc(F)c1)NC(=O)c1ccc(F)cc1F`: 48.2%; `O=C(NCCN1CCC2(CC1)C(=O)NCN2c1cccc(F)c1)c1ccccn1`: 99.8% (inactive).
Next, `COc1cc(C(=O)N[C@@H](C)CN2CCC3(CC2)C(=O)NCN3c2cccc(F)c2)cc(OC)c1OC`: 34.8%.
For `O=C(NCCN1CCC2(CC1)C(=O)NCN2c1cccc(F)c1)c1cccc(C(F)(F)F)c1`, the remaining activity was 107% (inactive).
Next, `C[C@@H](CN1CCC2(CC1)C(=O)NCN2c1cccc(F)c1)NC(=O)c1cccc([N+](=O)[O-])c1`: 74.9% (inactive); `C[C@@H](CN1CCC2(CC1)C(=O)NCN2c1cccc(F)c1)NC(=O)c1cccc(C(F)(F)F)c1`: 68.8% (inactive).
Next, `O=C(c1ccc(F)cc1)N(CCN1CCC2(CC1)C(=O)NCN2c1cccc(F)c1)C(=O)c1ccc(F)cc1`: 102% (inactive); `C[C@@H](CN1CCC2(CC1)C(=O)NCN2c1cccc(F)c1)NC(=O)c1cccc(F)c1`: 53.3%.
On to `C[C@@H](CN1CCC2(CC1)C(=O)NCN2c1cccc(F)c1)NC(=O)Cc1ccc(F)cc1`, for which the remaining activity was 91.1% (inactive).
Turning to `O=C(Cc1ccc(F)cc1)NCCN1CCC2(CC1)C(=O)NCN2c1cccc(F)c1`, the remaining activity was 92.5% (inactive).
Next, `O=C(NCCN1CCC2(CC1)C(=O)NCN2c1cccc(F)c1)c1ccc(Br)cc1`: 39.2%; `O=C(NCCN1CCC2(CC1)C(=O)NCN2c1cccc(F)c1)c1ccccc1I`: 111% (inactive); `O=C(NCCN1CCC2(CC1)C(=O)NCN2c1cccc(F)c1)c1ccc(F)cc1F`: 111% (inactive).
Consider `O=C(NCCN1CCC2(CC1)C(=O)NCN2c1cccc(F)c1)c1cccc([N+](=O)[O-])c1`, for which the remaining activity is 71% (inactive).
For `C[C@@H](CN1CCC2(CC1)C(=O)NCN2c1cccc(F)c1)NC(=O)c1c(F)ccc(F)c1Cl`, the remaining activity is 94.8% (inactive).
For the compound `C[C@@H](CN1CCC2(CC1)C(=O)NCN2c1cccc(F)c1)NC(=O)c1c(F)cccc1F`, the remaining activity is 106% (inactive).
In the case of `C[C@@H](CN1CCC2(CC1)C(=O)NCN2c1cccc(F)c1)NC(=O)c1ccccc1I` it was 79.4% (inactive); in that of `C[C@@H](CN1CCC2(CC1)C(=O)NCN2c1cccc(F)c1)NC(=O)c1ccc(F)cc1`, 33.3%; in that of `C[C@@H](CN1CCC2(CC1)C(=O)NCN2c1cccc(F)c1)NC(=O)c1cccc2ccccc12`, 81% (inactive).
In the case of `C[C@@H](CN1CCC2(CC1)C(=O)NCN2c1cccc(F)c1)NC(=O)c1ccc(F)c(F)c1` it was 22.8%; in that of `O=C(NCCN1CCC2(CC1)C(=O)NCN2c1cccc(F)c1)c1cccc2ccccc12`, 96.3% (inactive); in that of `COc1cc(C(=O)NCCN2CCC3(CC2)C(=O)NCN3c2cccc(F)c2)cc(OC)c1OC`, 46.7%.
In the case of `O=C(NCCN1CCC2(CC1)C(=O)NCN2c1cccc(F)c1)c1cccc2c1OCO2` it was 83.3% (inactive); in that of `O=C(NCCN1CCC2(CC1)C(=O)NCN2c1cccc(F)c1)c1c(F)ccc(F)c1Cl`, 85% (inactive).
Turning to `C[C@@H](CN1CCC2(CC1)C(=O)NCN2c1cccc(F)c1)NC(=O)c1ccc(Br)cc1`, the remaining activity is 26.6%.
In the case of `O=C(NCCN1CCC2(CC1)C(=O)NCN2c1cccc(F)c1)c1ccc(F)cc1` it was 59.4%.

As usually defined, the remaining activity is the signal under treatment as a percentage of the control signal.
